# From patent US10800725B2, “Arylpropionyl-triketone antibacterial agents” (priority 2010, dated 2020)
# What was measured:
# [1] = molecular target: M. tuberculosis RNA polymerase core enzyme + σA (Mycobacterium tuberculosis (strain ATCC 25618 / H37Rv), UniProt P9WGY7+P9WGY9); assay: Fluorescence-detected RNA polymerase assay, M. tuberculosis RNAP; type: biochemical
# Description: (§1) Fluorescence-detected RNA polymerase assays with E. coli RNA polymerase were performed by a modification of the procedure of Kuhlman et al., 2004 [Kuhlman, P., Duff, H. & Galant, A. (2004) A fluorescence-based assay for multisubunit DNA-dependent RNA polymerases. Anal. Biochem. 324, 183-190]. Reaction mixtures contained (20 μl): 0-100 nM test compound, 75 nM E. coli RNA polymerase σ^70 holoenzyme, 20 nM 384 bp DNA fragment containing the bacteriophage T4 N25 promoter, 100 μM ATP, 100 μM GTP, 100 μM UTP, 100 μM CTP, 50 mM Tris-HCl, pH 8.0, 100 mM KCl, 10 mM MgCl2, 1 mM DTT, 10 μg/ml bovine serum albumin, and 5.5% glycerol. Reaction components other than DNA and NTPs were pre-incubated for 10 min at 37° C. Reactions were carried out by addition of DNA and incubation for 5 min at 37° C., followed by addition of NTPs and incubation for 60 min at 37° C. DNA was removed by addition of 1 μl 5 mM CaCl2 and 2 U DNaseI (Ambion, Inc.), followed by incubation for 90 min at 37° C. RNA was quantified by addition of 100 μl RiboGreen RNA Quantitation Reagent (Invitrogen, Inc.; 1:500 dilution in Tris-HCl, pH 8.0, 1 mM EDTA), followed by incubation for 10 min at 25° C., followed by measurement of fluorescence intensity [excitation wavelength=485 nm and emission wavelength=535 nm; QuantaMaster QM1 spectrofluorometer (PTI, Inc.)]. IC50 is defined as the concentration of inhibitor resulting in 50% inhibition of RNA polymerase activity.
# (§2) Fluorescence-detected RNA polymerase assays with M. tuberculosis RNA polymerase were performed as in Example 21.1, using reaction mixtures containing (20 μl): 0-100 nM test compound, 75 nM M. tuberculosis RNA polymerase core enzyme, 300 nM M. tuberculosis σ^A, 20 nM 384 bp DNA fragment containing the bacteriophage T4 N25 promoter, 100 μM ATP, 100 μM GTP, 100 μM UTP, 100 μM CTP, 40 mM Tris-HCl, pH 8.0, 80 mM NaCl, 5 mM MgCl2, 2.5 mM DTT, and 12.7% glycerol. IC50 is defined as the concentration of inhibitor resulting in 50% inhibition of RNA polymerase activity.
# [2] = system: Staphylococcus aureus ATCC 12600; assay: MIC, spiral gradient endpoint assay; settings: ATCC12600, read-out: MIC S. aureus 12600
# [3] = molecular target: E. coli RNA polymerase σ70 holoenzyme (Escherichia coli (strain K12), UniProt P0A8T7+P0A8V2); assay: Fluorescence-detected RNA polymerase assay, E. coli RNAP; type: biochemical
# Description: as §1
# [4] = system: Escherichia coli D21f2tolC; assay: MIC, spiral gradient endpoint assay; settings: read-out: MIC E. coli D21f2tolC
# [5] = system: Enterococcus faecalis ATCC 19433; assay: MIC, spiral gradient endpoint assay; settings: ATCC19433, read-out: MIC E. faecalis 19433
# [6] = molecular target: S. aureus RNA polymerase core enzyme + σA (Staphylococcus aureus (strain NCTC 8325 / PS 47), UniProt P47768+Q2G0N5); assay: Fluorescence-detected RNA polymerase assay, S. aureus RNAP; type: biochemical
# Description: as §1
# as §2, with “S. aureus” for “M. tuberculosis”
# [7] = system: Mycobacterium tuberculosis H37Rv; assay: MIC, microplate Alamar Blue assay; settings: read-out: MIC M. tuberculosis H37Rv
SMILES,IC50 [1] [µM],MIC [2] [mg/L],IC50 [3] [µM],MIC [4] [mg/L],MIC [5] [mg/L],IC50 [6] [µM],MIC [7] [mg/L]
"Cc1ccccc1CCC(=O)C1=C(O)C(CCC(C)C)=C(O)C(CCC(C)C)(CCC(C)C)C1=O [Compound 7, 3,5-dihydroxy-2-(3-(2-methylphenyl)propanoyl)-4,6,6-triisopentylcyclohexa-2,4-dienone]",0.17,0.5,0.21,7,1,1.1,50
"Cc1cccc(CCC(=O)C2=C(O)C(CCC(C)C)=C(O)C(CCC(C)C)(CCC(C)C)C2=O)c1 [Compound 8, 3,5-dihydroxy-2-(3-(3-methylphenyl)propanoyl)-4,6,6-triisopentylcyclohexa-2,4-dienone]",0.6,4,0.42,12,1,2.2,> 50
"Cc1ccc(CCC(=O)C2=C(O)C(CCC(C)C)=C(O)C(CCC(C)C)(CCC(C)C)C2=O)cc1 [Compound 9, 3,5-dihydroxy-2-(3-(4-methylphenyl)propanoyl)-4,6,6-triisopentylcyclohexa-2,4-dienone]",0.29,0.5,0.22,4.4,1,0.84,25
"CC(C)CCC1=C(O)C(CCC(C)C)(CCC(C)C)C(=O)C(C(=O)CCc2ccc(F)cc2)=C1O [Compound 10, 3,5-dihydroxy-2-(3-(4-fluorophenyl)propanoyl)-4,6,6-triisopentylcyclohexa-2,4-dienone]",0.64,0.5,0.53,2.7,2.7,2.2,50
"CC(C)CCC1=C(O)C(CCC(C)C)(CCC(C)C)C(=O)C(C(=O)CCc2ccc(Br)cc2)=C1O [Compound 11, 3,5-dihydroxy-2-(3-(4-bromophenyl)propanoyl)-4,6,6-triisopentylcyclohexa-2,4-dienone]",0.78,0.8,0.89,3.3,2.6,3.3,50
"CC(C)CCC1=C(O)C(CCC(C)C)(CCC(C)C)C(=O)C(C(=O)CCc2ccc(C(F)(F)F)cc2)=C1O [Compound 12, 3,5-dihydroxy-2-(3-(4-trifluoromethylphenyl)propanoyl)-4,6,6-triisopentylcyclohexa-2,4-dienone]",0.22,0.6,0.12,4.3,0.5,0.46,25
"CCCC1=C(O)C(CCC)(CCC)C(=O)C(C(=O)CCc2ccc(Cl)cc2)=C1O [Compound 13, 3,5-dihydroxy-2-(3-(4-chlorophenyl)propanoyl)-4,6,6-tripropylcyclohexa-2,4-dienone]",1.4,0.7,7.8,0.8,2.2,5.3,> 50
"CCCCC1=C(O)C(CCCC)(CCCC)C(=O)C(C(=O)CCc2ccc(Cl)cc2)=C1O [Compound 14, 3,5-dihydroxy-2-(3-(4-chlorophenyl)propanoyl)-4,6,6-tributylcyclohexa-2,4-dienone]",0.68,0.5,1.1,0.6,1.3,3.1,> 50
